# Assay: solubility of ketoconazole in oleic acid
# Assay type: physicochemical
# Conditions: ambient room temperature, 48 h
# Experimental: The solubility of ketoconazole in oleic acid was assessed at ambient room temperature using the method described in Example 1. Samples containing 5, 10, 15 and 33 wt. % of ketoconazole were mixed with oleic acid and the appearance of undissolved ketoconazole was investigated after 24 and 48 h. After 24 hours samples containing 5 wt. % ketoconazole were completely dissolved and after 48 h samples containing 10 wt. % of ketoconazole were completely homogenous and all ketoconazole was dissolved. Thus the solubility of ketoconazole in oleic acid is estimated to be about 10 wt. %.
structure (smiles),measurement,value
"CC(=O)N1CCN(c2ccc(OCC3COC(Cn4ccnc4)(c4ccc(Cl)cc4Cl)O3)cc2)CC1 (stereo not shown) [ketoconazole, Ketoconazole]",solubility of ketoconazole in oleic acid,about 10 wt. %

# From US20030190357A1, “Compositions for delivery of a cortisol antagonist” (priority 2000, published 2003)
